Assay results from EP0094833A2, “Novel 1,2-benzisoxazole derivatives” (Dainippon Pharmaceutical Co., Ltd., priority 1982, dated 1983).
In brackets after ≈: the same amount, converted by molar mass. Counter-ions that a name gives are not always drawn. Like-named read-outs stand apart in the source and are kept apart here.

Experiments:
guinea pig taenia-coli = experiment: Inhibitory effect on contractile response induced by potassium chloride (Anti-KCl), isolated taenia-coli; type: cell-based; conditions: Cavia porcellus, read-out: IC50 (g/ml) Anti-KCl
Method: Experiment 2 Inhibitory effect on contractile response induced by potassium chloride (Anti-KC1) In the same manner as described in the above Experiment 1, isolated guinea pig taenia-coli about 3 cm in length was prepared, and mounted in Tyrode's solution. The contractile response was measured with an isometric transducer and recorded on recticorder. Each preparation was adjusted to a tension of .lg and allowed to equilibrate for 30 minutes before measuring the effects of the test compounds. Test compounds were applied to 5 minutes before adding potassium chloride (40 mM). Each Compound was tested in 2 - 3 concentrations.

ileum = experiment: Inhibitory effect on contractile response induced by acetylcholine (Anti-ACh), isolated ileum; type: cell-based, guinea pig; conditions: Cavia porcellus, read-out: Anti-ACh (IC50 : g/ml)
[1] = test system: spontaneous gastric motility; experiment: Inhibitory effect on spontaneous gastric motility (Anti-SGM) in conscious rabbits; type: in vivo, male Albino strain rabbits; conditions: Rabbit, 100 mg/kg po, maximum percent inhibition of initial spontaneous motility
Method: (§1) Experiment 3 Inhibitory effect on spontaneous gastric motility (Anti-SGM)
(§2) This effect was examined using male Wistar strain rats or male Albino strain rabbits, with chronically implanted strain gauge force transducer. The rats or rabbits were allowed to stand for 3 - 5 days for recovery from the surgery and fasted for 18 hours before experiment. Then, spontaneous gastric motility in conscious rats or rabbits was recorded and the sum of amplitude of each contraction was calculated every 15 minutes. Inhibitory effect of test compound by oral administration was expressed as a maximum percent inhibition of initial spontaneous motility.

[2] = test system: spontaneous gastric motility; experiment: Inhibitory effect on spontaneous gastric motility (Anti-SGM) in conscious rats; type: in vivo, male Wistar strain rats; conditions: Rat, maximum percent inhibition of initial spontaneous motility
Method: as §1, §2

[3] = guinea pig taenia-coli, potassium chloride 40 mM, test compound applied 5 minutes before
[4] = guinea pig ileum, acetylcholine 2 X 10^-8 g/ml, test compound applied 2 minutes before

| SMILES | IC50 (guinea pig taenia-coli; [3]) [µg/mL] | IC50 (ileum; [4]) [µg/mL] | also measured |
| --- | --- | --- | --- |
| CCN(CC)CCOC(=O)C(c1noc2ccccc12)C1CCCCC1 (stereo not shown) [Example 3] | 1 (≈ 2.79 µM) | 0.12 (≈ 0.335 µM) |  |
| Br.CCN(CC)CCCOC(=O)C(c1noc2ccccc12)C1CCCCC1 (stereo not drawn) [Example 1, 3-Diethylaminopropyl α-cyclohexyl-1,2-benzisoxazole-3-acetate hydrobromide] | 0.85 | 0.16 | Inhibition (%) [1]: 52%; Inhibition (%) ([2]; 100 mg/kg po): 36%; Inhibition (%) ([2]; 200 mg/kg po): 49% |
| COc1ccc(Cc2nccc3cc(OC)c(OC)cc23)cc1OC [Papaverine hydrochloride, reference compound] |  |  | IC50 (guinea pig taenia-coli): 1.3 µg/mL; IC50 (ileum): 13 µg/mL |
| CC[N+]1(C)CCC(OC(=O)C(c2noc3ccccc23)C2CCCCC2)CC1.[Br-] (stereo not shown) [Example 31, 1-Ethyl-1-methyl-4-[2-(1,2-benzisoxazol-3-yl)-2-cyclohexylacetoxy]piperidinium bromide] |  | 0.014 |  |
| O=C(OCCN1CCCCC1)C(c1noc2ccccc12)C1CCCCC1 (stereo not shown) [Example 9] | 2.7 (≈ 7.29 µM) | 0.41 (≈ 1.11 µM) |  |
| CCN(CC)CCCCOC(=O)C(c1noc2ccccc12)C1CCCCC1 (stereo not shown) [Example 8] |  | 0.48 (≈ 1.24 µM) |  |
| CCN(CC)CC(C)OC(=O)C(c1noc2ccccc12)C1CCCCC1 (stereo not shown) [Example 4] | 1.6 (≈ 4.3 µM) | 0.42 (≈ 1.13 µM) |  |
| CCN(CC)CCCC(C)OC(=O)C(c1noc2ccccc12)C1CCCCC1 (stereo not shown) [Example 7] |  | 0.69 (≈ 1.72 µM) |  |
| CN1CCC(OC(=O)C(c2noc3ccccc23)C2CCCCC2)CC1 (stereo not shown) [Example 5] |  | 0.037 (≈ 0.104 µM) |  |
| CN1CCC(OC(=O)C(c2noc3ccc(Cl)cc23)C2CCCCC2)CC1.O=C(O)C(=O)O (stereo not drawn) [Example 2, 1-Methyl-4-piperidyl α-cyclohexyl-5-chloro-1,2-benzisoxazole-3-acetate oxalate] | 3.2 | 0.34 |  |

Now from value to compound, other results behind:

| IC50 (guinea pig taenia-coli; [3]) [µg/mL] | IC50 (ileum; [4]) [µg/mL] | SMILES | also measured |
| --- | --- | --- | --- |
| 5.4 (≈ 15.9 µM) | 1.1 (≈ 3.24 µM) | CCN(CC)CC(C)OC(=O)C1CCCCC1(O)C1CCCCC1 (stereo not shown) [Rociverine, reference compound] |  |
|  | 0.057 | C[N+]1(C)CCC(OC(=O)C(c2noc3ccc(Cl)cc23)C2CCCCC2)CC1 (racemic) [Example 35] |  |
|  | 0.96 (≈ 2.11 µM) | O=C(OCCN1CCCC1)C(Cc1ccccc1)(Cc1ccccc1)c1noc2ccccc12 [Example 29] |  |
|  | 0.026 | CC[N+](C)(CC)CCOC(=O)C(c1noc2ccccc12)C1CCCCC1 (racemic) [Example 34] |  |
| 3.3 (≈ 8.4 µM) | 0.87 (≈ 2.21 µM) | CCN(CC)CCOC(=O)C(c1noc2ccc(Cl)cc12)C1CCCCC1 (stereo not shown) [Example 10] |  |
|  | 0.21 | CC[N+](C)(CC)CCCOC(=O)C(c1noc2ccccc12)C1CCCCC1 (stereo not shown) [Example 32] |  |
|  | 0.089 | CCCC[N+]1(C)C2CC(OC(=O)C(CO)c3ccccc3)CC1C1OC12 (stereo not shown) [Scopolamine-N-butyl bromide, reference compound] |  |
| 0.56 (≈ 1.23 µM) | 0.65 (≈ 1.43 µM) | CN1CCC(OC(=O)C(Cc2ccccc2)(Cc2ccccc2)c2noc3ccccc23)CC1 [Example 28] |  |
|  | 0.013 | C[N+]1(C)CCC(OC(=O)C(c2noc3ccccc23)C2CCCCC2)CC1 (stereo not shown) [Example 33] |  |
